One compound from PMC9964680, “Novel TDP1 Inhibitors: Disubstituted Thiazolidine-2,4-Diones Containing Monoterpene Moieties” (International Journal of Molecular Sciences, 2023) can be followed below.

What is called IC50 is the concentration that gives 50% inhibition.

The structures appear in SMILES notation.

Series [1] addresses T1, Human recombinant TDP1 (Homo sapiens, UniProt Q9NUW8).
T1 construct: made in house
The series can be described thus: Real-time oligonucleotide biosensor assay of TDP1 activity. In kind it is biochemical. As to conditions: 1.5 nM TDP1, 50 nM biosensor, 26 °C, at least three experiments; read-out: TDP1 inhibitory activity IC50. The procedure:
The inhibiting activity of the compounds against TDP1 was investigated using a real-time oligonucleotide biosensor assay.
The biosensor (5′-[FAM] AAC GTC AGGGTC TTC C [BHQ]-3′) was synthesized in the Laboratory of Nucleic Acid Chemistry at the Institute of Chemical Biology and Fundamental Medicine (Novosibirsk, Russia) and was used for TDP1 enzyme activity real-time fluorescence detection. The reaction mixture (200 µL) contained a TDP1 reaction buffer (50 mM Tris-HCl, pH 8.0, 50 mM NaCl, and 7 mM β-mercaptoethanol), 50 nM oligonucleotide, varied concentrations of the tested compounds, and purified TDP1 in a final concentration of 1.5 nM. The recombinant TDP1 was purified to homogeneity by chromatography on Ni-chelating resin and phosphocellulose P11, as described, using plasmid pET 16B-TDP1, kindly provided by Dr. K.W. Caldecott (University of Sussex, United Kingdom).
The reaction mixtures were incubated at a constant temperature of 26 °C in a POLARstar OPTIMA fluorimeter (BMG LABTECH, GmbH, Ortenberg, Germany). Fluorescence intensity was measured (Ex485/Em520 nm) every 1 min for 10 min. The average values of the half maximal inhibitory concentration (IC50) were determined using a six-point concentration response curve and calculated using MARS Data Analysis 2.0 (BMG LABTECH). The 50% inhibitory concentration (IC50) was defined as the concentration of the compound that inhibited 50% of the enzyme activity, when compared to the untreated controls. At least three independent experiments were carried out to obtain the IC50 values.

Series [2] deals with MRC-5 cells. The series can be described thus: Effect of compounds on topotecan cytotoxicity, MRC-5 (EZ4U). In kind it is cell-based, human. As to conditions: MRC-5, 10 μM compound, topotecan 1 to 10 μM. On the procedure: According the EZ4U test data the thiazolidine-2,4-diones were shown not to enhance the cytotoxic effect of topotecan at 10 μM (Figure 2C,D). […] It can be speculated that the decisive factor is the use of the thiazolidine-2,4-dione fragment as a central molecular scaffold, which is a pharmacophore for many targets. In particular, thiazolidine-2,4-diones are well-known for their antidiabetic, antitumor [20], and anti-inflammatory activities. Such promiscuity can lead to binding to a number of proteins/enzymes in cells other than TDP1.
Human colon adenocarcinoma HCT-116 and human lung fibroblast MRC-5 cell lines were provided by the Cell Culture Bank of the State Research Center for Virology and Biotechnology Vector, Novosibirsk, Russia. Cells were cultured in DMEM medium (Invitrogen) supplemented with 10% fetal bovine serum (FBS) (Invitrogen), penicillin (100 units/mL), and streptomycin (100 µg/mL) at 37 °C and 5% CO2 in a humid atmosphere. After the formation of a 30–50% monolayer, the tested compounds were added to the medium. Because the compounds are soluble in DMSO, we minimized the DMSO content in the culture medium. The volume of the added reagents was 1/100 of the total volume of the culture medium, and the amount of DMSO was 1% of the final volume. Control cells were grown in the presence of 1% DMSO. […]

T1 sequence (Q9NUW8 whole entry): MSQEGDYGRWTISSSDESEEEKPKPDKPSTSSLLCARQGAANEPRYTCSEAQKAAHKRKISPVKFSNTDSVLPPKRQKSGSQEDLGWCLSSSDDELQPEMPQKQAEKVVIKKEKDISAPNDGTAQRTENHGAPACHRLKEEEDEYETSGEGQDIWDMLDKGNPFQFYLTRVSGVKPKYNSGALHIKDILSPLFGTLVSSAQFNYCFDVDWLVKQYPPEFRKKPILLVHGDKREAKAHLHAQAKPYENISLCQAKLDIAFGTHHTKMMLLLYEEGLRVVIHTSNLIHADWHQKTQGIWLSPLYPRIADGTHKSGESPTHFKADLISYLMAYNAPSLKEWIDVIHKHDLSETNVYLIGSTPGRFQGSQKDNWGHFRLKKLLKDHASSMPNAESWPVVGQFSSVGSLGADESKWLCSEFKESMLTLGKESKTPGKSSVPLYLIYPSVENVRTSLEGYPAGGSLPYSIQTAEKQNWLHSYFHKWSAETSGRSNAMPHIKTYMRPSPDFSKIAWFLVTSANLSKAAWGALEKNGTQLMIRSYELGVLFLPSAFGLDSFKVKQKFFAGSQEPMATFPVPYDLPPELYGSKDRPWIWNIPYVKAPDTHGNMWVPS

As to `CC1(C)[C@H]2CC=C(CCN3C(=O)S/C(=C\c4ccc(Br)s4)C3=O)[C@@H]1C2` [Compound 21b, (Z)-5-((5-bromothiophen-2-yl)methylene)-3-(2-((1R,5S)-6,6-dimethylbicyclo[3.1.1]hept-2-en-2-yl)ethyl)thiazolidine-2,4-dione], the IC50 in series [1] is 2500 ± 400 nM. Moreover, the “effect on the cytotoxic effect of topotecan” value in series [2] is “protects MRC-5 cells”.
